Source: patent publication US4910193A, “Treatment of gastrointestinal disorders” (Sandoz Ltd., priority 1987, dated 1990)
Where a name gives a salt, the structure may show the parent alone. Read-outs that look alike come from different tables or passages of the source.

Tests used:
[1] = tested on: muscle strips from different parts of the guinea pig stomach; assay: Test A: field stimulation-induced contractions in guinea pig stomach muscle strips; parameters: species or system guinea pig (male Dunkin-Hartley)
Description: The compounds of the invention facilitate field stimulation-induced contractions in muscle strips from different parts of the guinea pig stomach and are therefore indicated to increase decreased peristalic movements in the stomach and to enhance gastric emptying in vivo. The test is effected as follows:
Male Dunkin-Hartley guinea pigs, 340-450 g, which had been starved overnight, were killed by cervical transsection and the stomach removed and placed in Krebs-Henseleit solution (NaCl 118.0, KCl 4.75, KH2 PO4 1.2, MgSO4 1.2, CaCl2 2.5, glucose 10 mM). Segments were taken from the body (approximately 20 mm long, 3-4 mm wide) with dissection in a plane suitable to investigate tension changes in the circular muscle layer. Tissues were placed in 30 ml organ baths containing oxygenated (95% O2, 5% CO2) Krebs-Henseleit solution at 37° C. One gram tension was applied to the tissues which were allowed to equilibrate for 45-60 min. before electrical stimulation. […] Responses were measured as changes in gram tension, but to allow easier comparison between treatments, data was converted to show changes as percentage values. The significance of differences between control responses and those obtained in the presence of interacting drugs was assessed using the Mann-Whitney U test.

[2] = tested on: 5-HT3 receptors in the guinea pig ileum; conditions: counteracting 5-HT induced spasms; cited from earlier work
[3] = tested on: high affinity 5-HT receptor; assay: Isolated longitudinal muscle of guinea pig ileum, 5-HT contraction, high affinity receptor
Description: The isolated longitudinal muscle of the guinea pig ileum with its adhering myenteric plexus is a well established model which permits investigation of the mechanism of action of various neurotransmitters.
Male guinea pigs (200-400 g) were killed by a blow on the head and exsanguineated. A length of small intestine was removed about 2 cm from the ileo-caecal valve. The mesentery was carefully removed and the ileum was stretched over a glass rod. By stroking tangentially away from the mesenteric attachement with a wad of cotton wool, the longitudinal muscle layer was separated and stripped from the unterlying circular muscle. Longitudinal muscle strips, 3-4 cm length, were mounted in a 10 ml organ bath containing Tyrode solution at 37° C. and bubbled with 5% carbon dioxide in oxygen. The Tyrode solution was of the following composition (mmol/l): NaCl, 137.0; CaCl2, 1.8; KCl, 2.7; MgCl2, 1.05; NaHCO3, 11.9; NaH2 PO4, 0.4; glucose, 5.6. The strips were placed under a resting tension of 500 mg. Contractions were recorded with an isotonic pendulum lever. […]
Each concentration was left in contact with the tissue for 1 min. […] Inhibition constants were expressed in the form of pA2 values which were graphically determined according to conventional methods (Arunlakshana and Schild, 1959. McKay 1978). […]

rabbit heart = conditions: in words; cited from earlier work
[4] = target: T1, low affinity 5-HT receptor (Cavia porcellus, UniProt O70212); assay: Isolated longitudinal muscle of guinea pig ileum, 5-HT contraction, low affinity receptor; conditions: read-out: pA2 (converted)
T1 construct: The isolated longitudinal muscle of the guinea pig ileum with its adhering myenteric plexus; from tissue; host or cells: longitudinal muscle strips of ileum with myenteric plexus, male guinea pigs
T1 sequence (O70212 20-490): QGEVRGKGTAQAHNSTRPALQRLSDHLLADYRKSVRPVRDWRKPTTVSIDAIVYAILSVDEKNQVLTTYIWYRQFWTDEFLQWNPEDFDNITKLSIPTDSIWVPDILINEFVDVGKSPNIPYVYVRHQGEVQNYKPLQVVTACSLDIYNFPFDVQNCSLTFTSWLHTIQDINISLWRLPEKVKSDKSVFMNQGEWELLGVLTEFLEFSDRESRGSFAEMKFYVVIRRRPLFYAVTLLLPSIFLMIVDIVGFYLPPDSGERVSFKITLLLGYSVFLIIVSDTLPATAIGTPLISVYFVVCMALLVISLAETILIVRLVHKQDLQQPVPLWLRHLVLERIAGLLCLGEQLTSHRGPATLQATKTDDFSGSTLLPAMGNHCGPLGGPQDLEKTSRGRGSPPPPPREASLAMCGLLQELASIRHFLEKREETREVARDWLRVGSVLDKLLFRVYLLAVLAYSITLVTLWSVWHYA
Protocol: Male guinea pigs (200-400 g) were killed by a blow on the head and exsanguineated. A length of small intestine was removed about 2 cm from the ileo-caecal valve. The mesentery was carefully removed and the ileum was stretched over a glass rod. By stroking tangentially away from the mesenteric attachement with a wad of cotton wool, the longitudinal muscle layer was separated and stripped from the unterlying circular muscle. Longitudinal muscle strips, 3-4 cm length, were mounted in a 10 ml organ bath containing Tyrode solution at 37° C. and bubbled with 5% carbon dioxide in oxygen. […] The strips were placed under a resting tension of 500 mg. Contractions were recorded with an isotonic pendulum lever. After equilibration for 30 min a set concentration of carbachol was applied in 10 min intervals until a consistent reaction was achieved.
Production of the concentration/reaction curve
Non-cumulative concentration-response curves for 5-HT were established by adding increasing concentrations of the agonist to the organ bath at intervals of at least 15 min. […] Each concentration was left in contact with the tissue for 1 min. […] The contractions expressed as percentage of the maximal response to 5-HT obtained from several preparations were plotted as mean values in order to obtain log-concentration-response curves.

[5] = tested on: conscious guinea pigs having stomachs made atonic; assay: Test B: gastric emptying in conscious guinea pigs (X-ray of spheroids); assay type: in vivo, guinea pig; conditions: versus metoclopramide
Protocol: The compounds of the invention also induce gastric emptying as indicated in standard in vivo tests, e.g. in conscious guinea pigs having stomachs made atonic (i.e. having decreased peristaltic movements) by fasting and wherein the passage of glass spheroids was observed by X-ray techniques. The experiments is effected as follows:
Food was withdrawn for 14 hours before the measurement of gastric emptying. The experiment was conducted under low illumination with minimal noise and disturbance, and was carried out only by those experimentors who had daily contact with the guinea pigs and who carried out the initial training to accustom the guinea pigs to handling. Therefore, animals were subject to minimal stress. […] Gastric emptying was measured as the number of spheroids leaving the stomach.
Six guinea pigs were used at each dose level of drug and responses compared to those of guinea pigs receiving the appropriate vehicle. The significance of differences between drug and control responses was assessed using the Mann Whitney U test.

[6] = tested on: chloera toxin-induced secretory diarrhea; parameters: species or system mouse (male NMRI); conditions: mouse, in vivo
rabbit vagus = conditions: in words; cited from earlier work
[7] = tested on: gastrointestinal motility induced by 5-hydroxytryptophan (5-HTP); assay: Test C: inhibition of increase in gastrointestinal motility induced by 5-HTP; assay type: in vivo, mouse (male NMRI); conditions: Mus musculus, ip; inhibition of 5-HTP induced motility
Protocol: In a further test the inhibition of the compounds of the invention in inhibiting the increase in gastrointestinal motility induced by 5-hydroxytryptophan (5-HTP) was observed.
Male NMRI mice (18-32 g in weight) are deprived of food 20 hours before the test. Water is not limited. The animals are separated by a barrier from their straw and access to feces. At the beginning of the test the animals are separated in individual single cages and water is removed.
All animals were treated with the test compound or saline. I.p. administration was used. Injection volume was 0.1 ml/10 g. 30 minutes after pre-treatment 5-HTP or saline was administered. Injection volume 0.1 ml/10 g. Dose 3 mg/kg. At the same time charcoal was administered perorally (10% suspension in water; 0.1 ml/10 g). 45 minutes after the start of the experiment the animals were killed. The intestines from the stomach to the rectum were examined. For each animal the transit distance of the front of the charcoal mean along the intestine was measured. The distance was ascertained as a percentage of the whole intestinal length. Groups of at least 3 animals were used.

dopamine binding sites [8] = assay: Binding to dopamine sites with tritiated haloperidol
Protocol: Several drugs e.g. metoclopramide are known for the treatment of gastrointestinal disorders (gut motility disorders). Action has been ascribed to opiates (e.g. loperamide), dopaminergic compounds (e.g. metoclopramide) although for most drugs the mode of the action is not well understood (see J. R. Malegeleda Scand. J. Gastroenterology, 19, Suppl. 96, 1984, pp. 115-121).
The compounds of the invention have insignificant action on dopamine binding sites, e.g. having an IC50 of […] or more using tritriated haloperidol.

5-HT reflex = conditions: in words; comparison drug; cited from earlier work
[9] = Properties of salt forms (solubility, stability); assay type: physicochemical; conditions: in words
dopamine binding sites [10] = conditions: tritiated haloperidol; read-out: IC50 dopamine sites (literature); cited from earlier work
dopamine = conditions: in words; comparison drug; cited from earlier work

CN1[C@@H]2CC[C@H]1C[C@@H](OC(=O)c1c[nH]c3ccccc13)C2 [Compound E, Indol-3-yl carboxylic acid endo-8-methyl-8-aza-bicyclo-[3,2,1]oct-3-yl ester]
EC (maximal response) ([1]; Cavia porcellus, field stimulation of stomach strips, read-out: concentration producing maximal response): 0.01 µM
times more active than metoclopramide (contraction) ([1]; versus metoclopramide): 100 times
action at 5-HT3 receptors in guinea pig ileum [2]: competitive antagonist of the 5-HT3 receptors in the guinea pig ileum
pD'2 [3]: 5.7
action against 5-HT on rabbit heart (rabbit heart): antagonistic action against 5-HT
Kb [4]: 12.6 nM
times more active than metoclopramide (gastric emptying) [5]: about 50 times
effect of increased dose on stomach contents [6]: did not lead to a reduction in the stomach contents
action against 5-HT on rabbit vagus (rabbit vagus): antagonistic action against 5-HT
ED50 [7]: 0.07 mg/kg

CN1[C@@H]2CCC[C@H]1C[C@@H](OC(=O)c1csc3ccccc13)C2 [Compound F, Benzo[b]thiophen-3-yl carboxylic acid endo-9-methyl-aza-bicyclo[3,3,1]non-3-yl ester]
pD'2 [3]: 5.9
Kb [4]: 0.398 nM
ED50 [7]: 0.025 mg/kg

CN1[C@@H]2CCC[C@H]1C[C@@H](OC(=O)c1cn(C)c3ccc(F)cc13)C2 [Compound G, 5-fluoro-1-methyl-indol-3-yl carboxylic acid endo-9-methyl-9-aza-bicyclo[3,3,1]non-3-yl ester]
ED50 [7]: 0.002 mg/kg

CNc1cc(OC)c(C(=O)NC2CN3CCC2CC3)cc1Cl (centres unmarked) [Example 71]
IC50 (dopamine binding sites [8]): > 10000 nM

CN1[C@@H]2CC[C@H]1C[C@@H](OC(=O)C(CO)c1ccccc1)C2 (some centres unmarked) [atropine]
effect on the whole reflex (5-HT reflex): paralyse the whole reflex

CN1[C@@H]2CCC[C@H]1C[C@@H](OC(=O)c1csc3ccccc13)C2 [hydrochloride of compound F]
solubility and stability properties of salt form [9]: especially advantageous properties, e.g. from the solubility and stability point of view

CN1[C@@H]2CCC[C@H]1C[C@@H](OC(=O)c1cn(C)c3ccc(F)cc13)C2 [hydrogen maleate of compound G]
solubility and stability properties of salt form [9]: especially advantageous properties, e.g. from the solubility and stability point of view

CCN(CC)CCNC(=O)c1cc(Cl)c(N)cc1OC [metoclopramide]
IC50 (dopamine binding sites [10]): ~170 nM
dopamine action (dopamine): dopamine agonist action
